These results are taken from US11427548B2 (Arvinas Operations, Inc., priority 2015, dated 2022).

In the assay the target is T1, Androgen Receptor (Homo sapiens, UniProt P10275).
T1 construct: endogenous in cells; host or cells: VCaP cells
T1 sequence (P10275 1-920): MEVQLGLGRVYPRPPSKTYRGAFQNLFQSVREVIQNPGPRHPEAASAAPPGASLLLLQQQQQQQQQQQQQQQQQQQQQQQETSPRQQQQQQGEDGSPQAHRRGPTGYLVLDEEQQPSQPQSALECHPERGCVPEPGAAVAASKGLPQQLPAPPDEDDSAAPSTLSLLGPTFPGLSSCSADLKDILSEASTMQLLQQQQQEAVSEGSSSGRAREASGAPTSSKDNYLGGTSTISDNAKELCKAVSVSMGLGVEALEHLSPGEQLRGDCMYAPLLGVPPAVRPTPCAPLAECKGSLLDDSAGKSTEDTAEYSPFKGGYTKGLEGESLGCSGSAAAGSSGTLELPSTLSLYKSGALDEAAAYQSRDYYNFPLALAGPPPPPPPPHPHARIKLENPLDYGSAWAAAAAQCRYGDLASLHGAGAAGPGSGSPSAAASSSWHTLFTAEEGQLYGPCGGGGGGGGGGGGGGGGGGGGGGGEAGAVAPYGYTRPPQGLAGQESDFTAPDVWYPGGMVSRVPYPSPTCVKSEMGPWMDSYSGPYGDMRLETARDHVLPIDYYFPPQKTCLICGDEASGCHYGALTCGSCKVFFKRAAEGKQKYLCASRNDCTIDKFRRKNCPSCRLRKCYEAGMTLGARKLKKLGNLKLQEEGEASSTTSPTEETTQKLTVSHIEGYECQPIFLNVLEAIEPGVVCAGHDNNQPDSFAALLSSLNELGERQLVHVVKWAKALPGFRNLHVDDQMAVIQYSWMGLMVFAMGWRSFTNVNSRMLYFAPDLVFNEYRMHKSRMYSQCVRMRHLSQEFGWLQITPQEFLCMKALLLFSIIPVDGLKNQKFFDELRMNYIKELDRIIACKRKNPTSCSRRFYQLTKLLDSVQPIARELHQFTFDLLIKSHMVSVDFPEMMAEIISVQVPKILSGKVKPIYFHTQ
The experiment in a line: Androgen Receptor ELISA assay (PathScan AR ELISA) in VCaP cells: AR degradation, Dmax and DC50. Type of assay: cell-based. The conditions noted are these: VCaP cells (Table 32); for Dmax: VCaP, highest percentage of Androgen Receptor degradation observed, read-out: VCaP Dmax (%); for DC50: concentration that caused 50% Androgen Receptor degradation, read-out: VCaP DC50. The procedure, abridged:
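After 24 h exposure of VCaP cells (charcoal-stripped serum, 0.1 nM R1881 agonist, 0.1% DMSO) to seven half-log compound concentrations, residual AR in lysates was measured by PathScan ELISA (TMB absorbance, 450 nm). Cells were plated at 30,000/well and grown at least 3 days beforehand.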
For orientation: ELISA stands for enzyme-linked immunosorbent assay.

For orientation: Dmax means the largest share of the target that was removed. Broadly, the DC50 is the concentration at which degradation of the target reaches its halfway point.

In the case of `Cc1ncoc1-c1ccc(CNC(=O)[C@@H]2C[C@@H](O)CN2C(=O)[C@@H](NC(=O)COCCCCCOc2ccc(C(=O)N[C@H]3C(C)(C)[C@H](Oc4ccc(C#N)c(C(F)(F)F)c4)C3(C)C)cc2)C(C)(C)C)cc1` [Example 154, (2S,4R)-1-[(2S)-3,3-dimethyl-2-(2-{[5-(4-{[trans--3-[4-cyano-3-(trifluoromethyl)phenoxy]-2,2,4,4-tetramethylcyclobutyl]carbamoyl}phen-oxy)pentyl]oxy}acetamido)butanoyl]-4-hydroxy-N-{[4-(4-methyl-1,3-oxazol-5-yl)phenyl]methyl}pyrrolidine-2-carboxamide], the maximal degradation (Dmax) is over 71% and the DC50 was under 50 nM.
On to `Cc1ncsc1-c1ccc(CNC(=O)[C@@H]2C[C@@H](O)CN2C(=O)[C@@H](NC(=O)COCCCCCOc2ccc(C(=O)N[C@H]3C(C)(C)[C@H](Oc4ccc(C#N)c(C(F)(F)F)c4)C3(C)C)cc2)C(C)(C)C)cc1` [Example 155, (2S,4R)-1-[(2S)-3,3-dimethyl-2-(2-{[5-(4-{[trans-3-[4-cyano-3-(trifluoromethyl)phenoxy]-2,2,4,4-tetramethylcyclobutyl]carbamoyl}phen-oxy)pentyl]oxy}acetamido)butanoyl]-4-hydroxy-N-{[4-(4-methyl-1,3-thiazol-5-yl)phenyl]methyl}pyrrolidine-2-carboxamide], for which the maximal degradation (Dmax) was over 71% and the half-maximal degradation concentration (DC50) was under 50 nM.
In the same order, the values of `Cc1ncsc1-c1ccc(CNC(=O)[C@@H]2C[C@@H](O)CN2C(=O)[C@@H](NC(=O)CO[C@H](C)CCCCOc2ccc(C(=O)N[C@H]3C(C)(C)[C@H](Oc4ccc(C#N)c(Cl)c4)C3(C)C)cc2)C(C)(C)C)cc1` [Example 158, (2S,4R)-1-[(2S)-3,3-dimethyl-2-(2-{[(2R)-6-(4-{[trans-3-(3-chloro-4-cyanophenoxy)-2,2,4,4-tetramethylcyclobutyl]carbamoyl}phen-oxy)hexan-2-yl]oxy}acetamido)butanoyl]-4-hydroxy-N-{[4-(4-methyl-1,3-thiazol-5-yl)phenyl]methyl}pyrrolidine-2-carboxamide] are over 71% and under 50 nM.
On to `Cc1ncsc1-c1ccc(CNC(=O)[C@@H]2C[C@@H](O)CN2C(=O)[C@@H](NC(=O)CO[C@@H](C)CCCCOc2ccc(C(=O)N[C@H]3C(C)(C)[C@H](Oc4ccc(C#N)c(Cl)c4)C3(C)C)cc2)C(C)(C)C)cc1` [Example 159, (2S,4R)-1-[(2S)-3,3-dimethyl-2-(2-{[(2S)-6-(4-{[trans-3-(3-chloro-4-cyanophenoxy)-2,2,4,4-tetramethylcyclobutyl]carbamoyl}phen-oxy)hexan-2-yl]oxy}acetamido)butanoyl]-4-hydroxy-N-{[4-(4-methyl-1,3-thiazol-5-yl)phenyl]methyl}pyrrolidine-2-carboxamide], for which the greatest degradation seen (Dmax) is over 71% and the 50% degradation concentration (DC50) is under 50 nM.
In the same order, the values of `Cc1ncsc1-c1ccc(CNC(=O)[C@@H]2C[C@@H](O)CN2C(=O)[C@@H](NC(=O)COCCCC[C@@H](C)Oc2ccc(C(=O)N[C@H]3C(C)(C)[C@H](Oc4ccc(C#N)c(Cl)c4)C3(C)C)cc2)C(C)(C)C)cc1` [Example 160, (2S,4R)-1-[(2S)-3,3-dimethyl-2-(2-{[(5S)-5-(4-{[trans-3-(3-chloro-4-cyanophenoxy)-2,2,4,4-tetramethylcyclobutyl]carbamoyl}phen-oxy)hexyl]oxy}acetamido)butanoyl]-4-hydroxy-N-{[4-(4-methyl-1,3-thiazol-5-yl)phenyl]methyl}pyrrolidine-2-carboxamide] are over 71% and under 50 nM.
In the same order, the values of `Cc1ncsc1-c1ccc(CNC(=O)[C@@H]2C[C@@H](O)CN2C(=O)[C@@H](NC(=O)COCCCC[C@H](C)Oc2ccc(C(=O)N[C@H]3C(C)(C)[C@H](Oc4ccc(C#N)c(Cl)c4)C3(C)C)cc2)C(C)(C)C)cc1` [Example 161, (2S,4R)-1-[(2S)-3,3-dimethyl-2-(2-{[(5R)-5-(4-{[trans-3-(3-chloro-4-cyanophenoxy)-2,2,4,4-tetramethylcyclobutyl]carbamoyl}phen-oxy)hexyl]oxy}acetamido)butanoyl]-4-hydroxy-N-{[4-(4-methyl-1,3-thiazol-5-yl)phenyl]methyl}pyrrolidine-2-carboxamide] are over 71% and under 50 nM.
In the same order, the values of `CC(C)(C)[C@H](NC(=O)COCCOCCCCOc1ccc(C(=O)N[C@H]2C(C)(C)[C@H](Oc3ccc(C#N)c(Cl)c3)C2(C)C)cc1)C(=O)N1C[C@H](O)C[C@H]1C(=O)NCc1ccc(-c2cncs2)cc1` [Example 162, (2S,4R)-1-[(2S)-3,3-dimethyl-2-(2-{2-[4-(4-{[trans-3-(3-chloro-4-cyanophenoxy)-2,2,4,4-tetramethylcyclobutyl]carbamoyl}phenoxy)butoxy]ethoxy}acetamido)butanoyl]-4-hydroxy-N-{[4-(1,3-thiazol-5-yl)phenyl]methyl}pyrrolidine-2-carboxamide] are over 71% and under 50 nM.
On to `Cc1ncoc1-c1ccc(CNC(=O)[C@@H]2C[C@@H](O)CN2C(=O)[C@@H](NC(=O)COCCCCOc2ccc(C(=O)N[C@H]3C(C)(C)[C@H](Oc4ccc(C#N)c(Cl)c4)C3(C)C)cc2)C(C)(C)C)cc1` [Example 164, (2S,4R)-1-[(2S)-3,3-dimethyl-2-{2-[4-(4-{[trans-3-(3-chloro-4-cyanophenoxy)-2,2,4,4-tetramethylcyclobutyl]carbamoyl}phenoxy)butoxy]acetamido}butanoyl]-4-hydroxy-N-{[4-(4-methyl-1,3-oxazol-5-yl)phenyl]methyl}pyrrolidine-2-carboxamide], for which the Dmax was over 71% and the half-maximal degradation concentration (DC50) is under 50 nM.
For `Cc1ncsc1-c1ccc(CNC(=O)[C@@H]2C[C@@H](O)CN2C(=O)[C@@H](NC(=O)COCCCCOc2ccc(C(=O)N[C@H]3C(C)(C)[C@H](Oc4ccc(C#N)c(C(F)(F)F)c4)C3(C)C)cc2)C(C)(C)C)cc1` [Example 165, (2S,4R)-1-[(2S)-3,3-dimethyl-2-{2-[4-(4-{[trans-3-[4-cyano-3-(trifluoromethyl)phenoxy]-2,2,4,4-tetramethylcyclobutyl]carbamoyl}phenoxy)butoxy]acetamido}butanoyl]-4-hydroxy-N-{[4-(4-methyl-1,3-thiazol-5-yl)phenyl]methyl}pyrrolidine-2-carboxamide], in that order: over 71% and under 50 nM.
Regarding `Cc1ncoc1-c1ccc(CNC(=O)[C@@H]2C[C@@H](O)CN2C(=O)[C@@H](NC(=O)COCCCCOc2ccc(C(=O)N[C@H]3C(C)(C)[C@H](Oc4ccc(C#N)c(C(F)(F)F)c4)C3(C)C)cc2)C(C)(C)C)cc1` [Example 166, (2S,4R)-1-[(2S)-3,3-dimethyl-2-{2-[4-(4-{[trans-3-[4-cyano-3-(trifluoromethyl)phenoxy]-2,2,4,4-tetramethylcyclobutyl]carbamoyl}phenoxy)butoxy]acetamido}butanoyl]-4-hydroxy-N-{[4-(4-methyl-1,3-oxazol-5-yl)phenyl]methyl}pyrrolidine-2-carboxamide], the Dmax lay in the range of 51 to 70% and the DC50 was under 50 nM.
For `Cc1ncsc1-c1ccc([C@H](C)NC(=O)[C@@H]2C[C@@H](O)CN2C(=O)[C@@H](NC(=O)COCCCCOc2ccc(C(=O)N[C@H]3C(C)(C)[C@H](Oc4ccc(C#N)c(Cl)c4)C3(C)C)cc2)C(C)(C)C)cc1` [Example 167, (2S,4R)-1-[(2S)-3,3-dimethyl-2-{2-[4-(4-{[trans-3-(3-chloro-4-cyanophenoxy)-2,2,4,4-tetramethylcyclobutyl]carbamoyl}phenoxy)butoxy]acetamido}butanoyl]-4-hydroxy-N-[(1S)-1-[4-(4-methyl-1,3-thiazol-5-yl)phenyl]ethyl]pyrrolidine-2-carboxamide], in that order: over 71% and under 50 nM.
For `Cc1ncoc1-c1ccc([C@H](C)NC(=O)[C@@H]2C[C@@H](O)CN2C(=O)[C@@H](NC(=O)COCCCCOc2ccc(C(=O)N[C@H]3C(C)(C)[C@H](Oc4ccc(C#N)c(Cl)c4)C3(C)C)cc2)C(C)(C)C)cc1` [Example 168, (2S,4R)-1-[(2S)-3,3-dimethyl-2-{2-[4-(4-{[trans-3-(3-chloro-4-cyanophenoxy)-2,2,4,4-tetramethylcyclobutyl]carbamoyl}phenoxy)butoxy]acetamido}butanoyl]-4-hydroxy-N-[(1S)-1-[4-(4-methyl-1,3-oxazol-5-yl)phenyl]ethyl]pyrrolidine-2-carboxamide], in that order: over 71% and under 50 nM.
